The results in this text go back to US7608716B2, “Pyrazolonaphthyridine derivative” (Aska Pharmaceutical Co., Ltd., priority 2002, dated 2009).

Data set [1] relates to T1, PDE IV isozymes separated from U937 culture cells.
T1 construct: PDE IV isozymes as used herein were separated from U937 culture cells by using an anion exchange chromatography
The data set can be described thus: PDE IV inhibition ([3H]-cAMP hydrolysis). As to conditions: cAMP 1 μM substrate, 30° C., 20 minutes. The class given is biochemical. As for the experimental part: PDE IV isozymes as used herein were separated from U937 culture cells by using an anion exchange chromatography. Type IV PDE isozyme was admixed with ethylene glycol (EG) to adjust the final EG concentration to 30%, then stored at −20° C. and diluted when used. The enzymatic activity for PDE IV was measured using cAMP as a substrate.
Each test compound was dissolved in DMSO to adjust the final concentration to 1% (2.5 μl/tube).
Incubation Buffer Solution (pH7.5):
• Tris-HCl (50 mM), magnesium chloride (6 mM), dithiothreitol (2.5 mM), 5-nucleotidase (4 μg/ml), bovine serum albumin (0.23 mg/ml), and cAMP (1 μM).
A mixture of the aforementioned test compound solution and the buffer solution was incubated at 30° C. for 20 minutes. The reaction was quenched by admixing with 1 ml of anion exchange resin slurry (AG1-X8, 200-400 meshes, chloride form; Bio-Rad) to absorb unreacted substrates. After the reaction stopped, the mixture was centrifuged at 800×g for 10 minutes, and the resulting supernatant was collected with vials in 250 μl aliquots. To each vial was added 5 ml of ACS-II (scintillator, Amersham). The radioactivity was measured with a liquid scintillator counter for [^3H]-adenosine and set as the PDE IV activity.

The test system of data set [2] is lung neutrophil infiltration. As to the kind of experiment: Inhibition of lung neutrophil infiltration (LPS inhalation, BALF). The class given is in vivo, Hartley guinea-pigs. As to conditions: Cavia porcellus, guinea-pigs, oral, 1 hour before LPS inhalation, BALF neutrophils at 24 hours, read-out: Inhibition of Lung Neutrophil Infiltration ED50: mg/kg orally. As for the experimental part: Hartley guinea-pigs were orally received a suspension of test compounds at a dose of 0.03 to 3 mg/2 mL/kg. One hour later, the animals were received 0.1 mg/mL lipopolylsaccharide (LPS) in a physiological saline via an inhalational route with a nebulizer for 30 minutes. Twenty-four hours after the LPS inhalation, BALF samples were collected, and neutrophils were counted.

Another data set deals with ICR mice. As to the kind of experiment: Toxicology study (1-week administration to mice). The class given is in vivo. As to conditions: oral, 100 or 300 mg/10 ml/kg, one week. As for the experimental part: The Compound of the present invention (Example No. 9) was administered orally to ICR mice (5 animals per group) as a test compound. […] The test compound was suspended in 0.5% CMC-Na solution and given orally to the animal at a dose of 100 or 300 mg/10 ml/kg in a forced manner.

Consider `O=c1c2c(Cc3ccccc3)n[nH]c2c2cccnc2n1-c1ccccc1` [Example No. 9, 3-benzyl-5-phenyl-1H-pyrazolo[4,3-c][1,8]naphthyridin-4 (5H)-one], for which the concentration for half-maximal inhibition (IC50) in data set [1] worked out at 0.084 µM. For the same molecule, in data set [2], the ED50 came to 0.12 mg/kg. In addition, in the data set on ICR mice, the “Abnormality in other parameters” value is reported as “no abnormality was observed”, the Body weight gain result is reported as “No reduction of body weight gains was observed” and the Mortality result is given as “None of the animals were died”.

The molecule `O=c1c2c(Cc3ccc(F)cc3)n[nH]c2c2cccnc2n1-c1ccccc1` [Example No. 33, 3-(4-fluorobenzyl)-5-phenyl-1H-pyrazolo[4,3-c][1,8]naphthyridin-4 (5H)-one] showed a half-maximal inhibitory concentration (IC50) in data set [1] of 0.068 µM. In addition, the ED50 in data set [2] was determined as 0.09 mg/kg.

In general, IC50 refers to the concentration that inhibits the measured activity by half.
